Values of other authors, collected in patent publication US8912192B2, “Extended release preparation” (Taisho Pharmaceutical Co., Ltd, priority 2010, dated 2014).
Structures can show the parent of a compound that is named as a salt. Where two headings read alike, the source gives them in different places.

Experiments:
[1] = pharmaceutically acceptable salt of compound A
[2] = preparation containing a pharmaceutically acceptable salt of compound A, oral, dogs, fasting state
[3] = tested on: phosphodiesterase III enzymes; details: compound A or a pharmaceutically acceptable salt thereof

Question: What does the source list for `O=c1[nH]nc(OCCCc2ccc(Cl)cc2)c(NCc2cccnc2)c1Br` [compound A, 4-bromo-6-[3-(4-chlorophenyl)propoxy]-5-(3-pyridylmethylamino)-3(2H)-pyridazinone]?
Answer: solubility in water ([1]; around neutral pH range similar to enteric environment): quite poorly soluble; solubility in water ([1]; pH range of about 4.0 or higher): decreases its solubility in water; bioavailability [2]: about 10%; half-life period in blood plasma (blood plasma): about 1.5 hours; inhibitory effect against phosphodiesterase III enzymes [3]: has an inhibitory effect against phosphodiesterase III enzymes

Question: For `CC(N)C(O)c1ccccc1` (stereo not drawn) [phenylpropanolamine hydrochloride, reference compound], which half-life period (in vivo) is on record?
Answer: 4 h
